The values that follow come from patent publication US10980813B2, “Antifungal composition” (SEED RESEARCH INSTITUTE CO., LTD., priority 2017, dated 2021).

Molecules are shown by their SMILES. Converted amounts (≈) assume the structure as drawn.

Assay in all cases: Antifungal activity, MIC by disc (diffusion) method
For experiment [1], the system named is A. fumigatus. The class given is cell-based. The note with it: Aspergillus fumigatus, YMG agar, 24 hr at 28° C., read-out: MIC (minimum inhibitory concentration) A. fumigatus. On the procedure:
(§1) Measurement Method of Antifungal Activity in Various Compounds
(§2) The minimum inhibitory concentration (MIC) was measured by a disc method (diffusion method). The disc method is one kind of the diffusion method, and is a method in which filter paper (disc) impregnated with an antifungal substance at a given concentration is placed on an agar medium (test plate) coated with a test bacterium and cultivated. The disc absorbs water in the medium, diffuses the antifungal substance and forms a given concentration gradient. As a result, the test bacterium forms a growth inhibition zone (circle) in the periphery of the disc, and the level of sensitivity to the antifungal substance is determined from the diameter of the inhibition circle.
(§3) Using the aforementioned method, MIC of various compounds was measured.
(§4) i: In a 100 mL flask, 20 mL of YMG or Mueller Hinton medium is produced.
(§5) ii: A loopful of the test bacterium is dissolved in the medium.
(§6) iii: The medium is cultured at 200 rpm for 24 hr in a rotary shaker set to 28° C.
(§7) i: In a 300 mL flask, 100 mL of YMG or Mueller Hinton agar medium (low melting point agar) is produced.
(§8) ii: After cooling to 37° C.-40° C., preculture medium (1 mL) is added and the mixture is agitated.
(§9) iii: The mixture is dispensed to a square petri dish (size: 100*150*17 mm) by 20 mL each.
(§10) iv: The dish is stood at room temperature until the agar is solidified.
(§11) i: The compound is diluted in ½ dilution series in 10 stages (timely changed according to compound), 50 μL of solution/pulp at each dilution stage is produced, the organic solvent is dried at room temperature and placed on a test plate.
(§12) ii: After culturing T. rubrum for 48 hr and other test bacteria for 24 hr at 28° C. in an incubator, the size of the inhibition circle was measured.
(§13) The medium composition for culture which was used for the aforementioned preculture is shown below.
(§14) [Medium Compositions for Preculture and Test Plate]
(§15) <<YMG Medium>>: For Fungus
(§16) Agar, powder 0.8% * added only when producing test plate

Experiment [2] has as its system Saccharomyces. The class given is cell-based. Particulars: YMG agar, 24 hr at 28° C., read-out: MIC (minimum inhibitory concentration) Saccharomyces. On the procedure:
as §1, §2, §3, §4, §5, §6, §7, §8, §9, §10, §11, §12, §13, §14, §15, §16

The subject of experiment [3] is T. mentagrophytes. Format: cell-based. Particulars: Trichophyton mentagrophytes, YMG agar, 24 hr at 28° C., read-out: MIC (minimum inhibitory concentration) T. mentagrophytes. On the procedure: as §1, §2, §3, §4, §5, §6, §7, §8, §9, §10, §11, §12, §13, §14, §15, §16
In experiment [4] the test system is T. rubrum. The class given is cell-based. The note with it: Trichophyton rubrum, YMG agar, 48 hr at 28° C., read-out: MIC (minimum inhibitory concentration) T. rubrum. On the procedure:
as §1, §2, §3, §4, §5, §6, §7, §8, §9, §10, §11, §12, §13, §14, §15, §16

Experiment [5] has as its system C. parapsilosis. Format: cell-based, Candida parapsilosis. Particulars: Lodderomyces parapsilosis, YMG agar, 24 hr at 28° C., read-out: MIC (minimum inhibitory concentration) C. parapsilosis. On the procedure:
as §1, §2, §3, §4, §5, §6, §7, §8, §9, §10, §11, §12, §13, §14, §15, §16

On to `O=S1(=O)N=Cc2cc(F)ccc2O1` [I-1a], for which the MIC turned out to be 4 µg/mL (≈ 19.9 µM) in experiment [1]; 4 µg/mL (≈ 19.9 µM) in experiment [2]; 1 µg/mL (≈ 4.97 µM) in experiment [3]; 1 µg/mL (≈ 4.97 µM) in experiment [4]; 4 µg/mL (≈ 19.9 µM) in experiment [5].
As to `O=S1(=O)N=Cc2cc(Cl)ccc2O1` [I-1b], the MIC in experiment [1] stood at 4 µg/mL (≈ 18.4 µM); in experiment [2], 4 µg/mL (≈ 18.4 µM); in experiment [3], 1 µg/mL (≈ 4.59 µM); in experiment [4], 1 µg/mL (≈ 4.59 µM); in experiment [5], 4 µg/mL (≈ 18.4 µM).
For the compound `O=S1(=O)N=Cc2cc(Br)ccc2O1` [I-1c], the MIC in experiment [1] turned out to be 4 µg/mL (≈ 15.3 µM); in experiment [2], 4 µg/mL (≈ 15.3 µM); in experiment [3], 1 µg/mL (≈ 3.82 µM); in experiment [4] it was 1 µg/mL (≈ 3.82 µM); in experiment [5], 4 µg/mL (≈ 15.3 µM).
As to `COc1ccc2c(c1)C=NS(=O)(=O)O2` [I-1d], the MIC in experiment [1] was found to be 8 µg/mL (≈ 37.5 µM); in experiment [2] it was 8 µg/mL (≈ 37.5 µM); in experiment [3], 2 µg/mL (≈ 9.38 µM); in experiment [4], 2 µg/mL (≈ 9.38 µM); in experiment [5], 8 µg/mL (≈ 37.5 µM).
Consider `O=[N+]([O-])c1ccc2c(c1)C=NS(=O)(=O)O2` [I-1e], for which the MIC in experiment [1] is 4 µg/mL (≈ 17.5 µM); in experiment [2], 4 µg/mL (≈ 17.5 µM); in experiment [3] it was 1 µg/mL (≈ 4.38 µM); in experiment [4], 1 µg/mL (≈ 4.38 µM); in experiment [5], 4 µg/mL (≈ 17.5 µM).
For `COC(=O)c1ccc2c(c1)C=NS(=O)(=O)O2` [I-1f], the MIC was 4 µg/mL (≈ 16.6 µM) in experiment [1]; 4 µg/mL (≈ 16.6 µM) in experiment [2]; 1 µg/mL (≈ 4.15 µM) in experiment [3]; 1 µg/mL (≈ 4.15 µM) in experiment [4]; 4 µg/mL (≈ 16.6 µM) in experiment [5].
For the compound `N#Cc1ccc2c(c1)C=NS(=O)(=O)O2` [I-1g], the MIC came out at 4 µg/mL (≈ 19.2 µM) in experiment [1]; 4 µg/mL (≈ 19.2 µM) in experiment [2]; 1 µg/mL (≈ 4.8 µM) in experiment [3]; 1 µg/mL (≈ 4.8 µM) in experiment [4]; 4 µg/mL (≈ 19.2 µM) in experiment [5].
Take `O=S1(=O)N=Cc2cc(Cl)cc(Cl)c2O1` [I-1h]: the MIC in experiment [1] was 4 µg/mL (≈ 15.9 µM); in experiment [2], 4 µg/mL (≈ 15.9 µM); in experiment [3] it was 1 µg/mL (≈ 3.97 µM); in experiment [4], 1 µg/mL (≈ 3.97 µM); in experiment [5], 4 µg/mL (≈ 15.9 µM).
For `O=[N+]([O-])c1cc(Cl)cc2c1OS(=O)(=O)N=C2` [I-1i], the MIC in experiment [1] was determined as 4 µg/mL (≈ 15.2 µM); in experiment [2], 4 µg/mL (≈ 15.2 µM); in experiment [3], 1 µg/mL (≈ 3.81 µM); in experiment [4] it was 1 µg/mL (≈ 3.81 µM); in experiment [5], 4 µg/mL (≈ 15.2 µM).
With `CC1=NS(=O)(=O)Oc2ccccc21` [I-1j], the MIC in experiment [1] is 8 µg/mL (≈ 40.6 µM); in experiment [2] it was 8 µg/mL (≈ 40.6 µM); in experiment [3] it was 2 µg/mL (≈ 10.1 µM); in experiment [4], 2 µg/mL (≈ 10.1 µM); in experiment [5], 8 µg/mL (≈ 40.6 µM).
Consider `CC1=NS(=O)(=O)Nc2ccccc21` [I-1k], for which the MIC amounted to 8 µg/mL (≈ 40.8 µM) in experiment [1]; 8 µg/mL (≈ 40.8 µM) in experiment [2]; 2 µg/mL (≈ 10.2 µM) in experiment [3]; 2 µg/mL (≈ 10.2 µM) in experiment [4]; 8 µg/mL (≈ 40.8 µM) in experiment [5].
For `O=S1(=O)N=C(c2ccccc2)c2cc(Cl)ccc2N1` [I-1l], the MIC in experiment [1] came to 8 µg/mL (≈ 27.3 µM); in experiment [2] it was 8 µg/mL (≈ 27.3 µM); in experiment [3], 2 µg/mL (≈ 6.83 µM); in experiment [4], 2 µg/mL (≈ 6.83 µM); in experiment [5], 8 µg/mL (≈ 27.3 µM).
For `CC1=NS(=O)(=O)OC(C)=C1C` [I-2a], the MIC in experiment [1] came to 8 µg/mL (≈ 45.7 µM); in experiment [2], 8 µg/mL (≈ 45.7 µM); in experiment [3], 2 µg/mL (≈ 11.4 µM); in experiment [4], 2 µg/mL (≈ 11.4 µM); in experiment [5], 8 µg/mL (≈ 45.7 µM).
In the case of `CC1=CC(C)=NS(=O)(=O)N1` [I-2b], the MIC in experiment [1] came out at 16 µg/mL (≈ 99.9 µM); in experiment [2] it was 16 µg/mL (≈ 99.9 µM); in experiment [3], 2 µg/mL (≈ 12.5 µM); in experiment [4] it was 2 µg/mL (≈ 12.5 µM); in experiment [5], 16 µg/mL (≈ 99.9 µM).
With `CC1=CC(c2ccccc2)=NS(=O)(=O)N1` [I-2c], the MIC in experiment [1] worked out at 8 µg/mL (≈ 36 µM); in experiment [2], 8 µg/mL (≈ 36 µM); in experiment [3] it was 2 µg/mL (≈ 9 µM); in experiment [4] it was 2 µg/mL (≈ 9 µM); in experiment [5] it was 8 µg/mL (≈ 36 µM).
For the compound `CC1=C(C)C(c2ccccc2)=NS(=O)(=O)N1` [I-2d], the MIC in experiment [1] turned out to be 8 µg/mL (≈ 33.9 µM); in experiment [2] it was 8 µg/mL (≈ 33.9 µM); in experiment [3] it was 2 µg/mL (≈ 8.46 µM); in experiment [4] it was 2 µg/mL (≈ 8.46 µM); in experiment [5], 8 µg/mL (≈ 33.9 µM).
With `CC1=NS(=O)(=O)OC1C` (stereo not shown) [I-3a], the MIC was 4 µg/mL (≈ 26.8 µM) in experiment [1]; 4 µg/mL (≈ 26.8 µM) in experiment [2]; 2 µg/mL (≈ 13.4 µM) in experiment [3]; 2 µg/mL (≈ 13.4 µM) in experiment [4]; 4 µg/mL (≈ 26.8 µM) in experiment [5].
